Results from patent US8269000B2, “Substituted pyrimidine and triazine compounds” (Gruenenthal GmbH, priority 2008, dated 2012).

Legend:
[1] = target: T1, human B1R (Homo sapiens, UniProt P46663); test: FLIPR Ca2+ functional study on bradykinin receptor 1 (hB1R CHO K1 cells); type: cell-based; details: % inhibition human B1R at 10 μM; for inhibition at 10 µM: read-out: % inh. (hum. B1R) 10 μM
T1 construct: expressed in transfected cells; host or cells: CHO K1 cells
T1 sequence (P46663 1-353): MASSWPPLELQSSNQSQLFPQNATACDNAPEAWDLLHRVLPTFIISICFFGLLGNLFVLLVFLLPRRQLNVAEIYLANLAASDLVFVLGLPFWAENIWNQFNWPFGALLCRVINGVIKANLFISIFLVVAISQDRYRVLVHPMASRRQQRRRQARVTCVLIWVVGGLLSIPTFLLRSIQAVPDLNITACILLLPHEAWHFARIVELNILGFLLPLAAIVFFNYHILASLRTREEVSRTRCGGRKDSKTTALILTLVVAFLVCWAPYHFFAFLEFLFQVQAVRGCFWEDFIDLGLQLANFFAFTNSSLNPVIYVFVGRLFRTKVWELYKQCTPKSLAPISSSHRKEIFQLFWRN
Procedure, shortened: (§1)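 Antagonism was calculated as % of maximal inhibition of the Ca2+ rise triggered by agonist at EC80 (Lys-Des-Arg9-bradykinin for hB1R, Des-Arg9-bradykinin for rB1R), added 10-20 min after test compound (10 μM or serial dilutions for IC50) to Fluo-4-loaded transfected CHO K1 cells on FLIPR. Duplicates or triplicates, ≥2 independent runs.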

[2] = target: T2, rat B1R (Rattus norvegicus, UniProt P97583); test: FLIPR Ca2+ functional study on bradykinin receptor 1 (rB1R CHO K1 cells); type: cell-based; details: for inhibition at 10 µM: CHO-K1, % inhibition rat B1R at 10 μM, read-out: % inh. (rat B1R) 10 μM; for % inh. (rat B1R) 10 μM: % inhibition rat B1R at 10 μM
T2 construct: expressed in transfected cells; host or cells: CHO K1 cells
T2 sequence (P97583 1-337): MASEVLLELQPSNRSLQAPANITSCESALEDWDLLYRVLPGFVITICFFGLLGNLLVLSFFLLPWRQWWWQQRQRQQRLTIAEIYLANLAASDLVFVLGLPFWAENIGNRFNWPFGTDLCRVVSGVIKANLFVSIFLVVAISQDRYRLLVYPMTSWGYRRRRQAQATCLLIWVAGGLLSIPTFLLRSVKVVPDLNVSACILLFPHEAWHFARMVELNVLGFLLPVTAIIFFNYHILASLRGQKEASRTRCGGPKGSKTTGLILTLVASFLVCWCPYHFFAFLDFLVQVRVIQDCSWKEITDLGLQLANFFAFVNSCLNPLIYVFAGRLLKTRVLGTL
Procedure, shortened: as §1

Structure (SMILES) | inhibition at 10 µM [1] | inhibition at 10 µM [2] | % inh. (hum. B1R) 10 μM [1] | % inh. (rat B1R) 10 μM [2]
COc1cc(C)c(S(=O)(=O)N2CCCC(Oc3nccc(N4CCC5(CCN(c6ccncc6)CC5)CC4)n3)C2)c(C)c1 (centres unmarked) [G_CC-041, 9-[2-[[1-(4-methoxy-2,6-dimethylphenyl)sulfonyl-3-piperidinyl]oxy]-4-pyrimidinyl]-3-(4-pyridyl)-3,9-diazaspiro[5.5]undecane] | 96% | 101% | – | –
COc1cc(C)c(S(=O)(=O)N(CCN(C)c2cncc(N3CCC4(CCN(c5ccncc5)CC4)CC3)n2)C2CC2)c(C)c1 [Example I-002, N-cyclopropyl-4-methoxy-2,6-dimethyl-N-[2-[methyl-[6-(9-pyridin-4-yl-3,9-diazaspiro[5.5]undecan-3-yl)-pyrazin-2-yl]-amino]-ethyl]-benzenesulfonic acid amide] | 94% | 109% | – | –
COc1cc(C)c(S(=O)(=O)N2CC(Oc3ccnc(N4CCC5(CCN(c6ccncc6)CC5)CC4)n3)C2)c(C)c1 [Example H-007, 3-[4-[[1-(4-methoxy-2,6-dimethylphenyl)sulfonyl-3-azetidinyl]oxy]-2-pyrimidinyl]-9-(4-pyridyl)-3,9-diazaspiro[5.5]undecane] | 11% | 80% | – | –
COc1cc(C)c(S(=O)(=O)N(C)CCOc2ccnc(N3CCC(CCN4CCCC4)CC3)n2)c(C)c1 [Example H-001, 4-methoxy-N,2,6-trimethyl-N-[2-[[2-[4-(2-1-pyrrolidinylethyl)-1-piperidinyl]-4-pyrimidinyl]oxy]ethyl]benzenesulfonamide] | 44% | 99% | – | –
COc1cc(C)c(S(=O)(=O)N2CCCCC2COc2nccc(N3CCN(CC4CCN(C)CC4)CC3)n2)c(C)c1 (centres unmarked) [G_CC-014, 2-[[1-(4-methoxy-2,6-dimethylphenyl)sulfonyl-2-piperidinyl]methoxy]-4-[4-[(1-methyl-4-piperidinyl)methyl]-1-piperazinyl]pyrimidine] | 94% | 105% | – | –
COc1cc(C)c(S(=O)(=O)NC(C)(C)COc2nccc(N3CCC4(CCN(c5ccncc5)CC4)CC3)n2)c(C)c1 [Example G-024, N-[1,1-dimethyl-2-[4-(9-pyridin-4-yl-3,9-diazaspiro[5.5]undecan-3-yl)-pyrimidin-2-yl]oxy-ethyl]-4-methoxy-2,6-dimethyl-benzenesulfonic acid amide] | 99% | 113% | – | –
COc1cc(C)c(S(=O)(=O)N2CCCCC2COc2nccc(N(C)CCN3CCC(c4ccccc4)(N(C)C)CC3)n2)c(C)c1 (centres unmarked) [G_CC-004, N-[2-(4-dimethylamino-4-phenyl-1-piperidinyl)ethyl]-2-[[1-(4-methoxy-2,6-dimethylphenyl)sulfonyl-2-piperidinyl]methoxy]-N-methyl-4-pyrimidineamine] | 100% | 100% | – | –
COc1cc(C)c(S(=O)(=O)N(C)C(COc2ccnc(N3CCC4(CCN(c5ccncc5)CC4)CC3)n2)c2ccccc2)c(C)c1 (centres unmarked) [H_CC-037, 4-methoxy-N,2,6-trimethyl-N-[1-phenyl-2-[[2-[3-(4-pyridyl)-3,9-diazaspiro[5.5]undecan-9-yl]-4-pyrimidinyl]oxy]ethyl]benzenesulfonamide] | 54% | 102% | – | –
COc1cc(C)c(S(=O)(=O)N(CCN(C)c2cc(N3CCC4(CCN(c5ccncc5)CC4)CC3)ncn2)C2CC2)c(C)c1 [Example I-003, N-cyclopropyl-4-methoxy-2,6-dimethyl-N-[2-[methyl-[6-(9-pyridin-4-yl-3,9-diazaspiro[5.5]undecan-3-yl)-pyrimidin-4-yl]-amino]-ethyl]-benzenesulfonic acid amide] | 96% | 108% | – | –
COc1cc(C)c(S(=O)(=O)N2CCC[C@H]2COc2nccc(N3CCC(Oc4ccncc4)CC3)n2)c(C)c1 [G_CC-052, 2-[[(2S)-1-(4-methoxy-2,6-dimethylphenyl)sulfonyl-2-pyrrlidinyl]methoxy]-4-[4-(4-pyridyloxy)-1-piperidinyl]pyrimidine] | – | – | 74% | 99%
COc1cc(C)c(S(=O)(=O)N(CCOc2nccc(NCCC3CCN(c4ccncc4)CC3)n2)C2CC2)c(C)c1 [Example G-006, N-cyclopropyl-4-methoxy-2,6-dimethyl-N-[2-[[4-[2-[1-(4-pyridyl)-4-piperidinyl]ethylamino]-2-pyrimidinyl]oxy]ethyl]benzenesulfonamide] | 99% | 94% | – | –
COc1cc(C)c(S(=O)(=O)N(CCCc2cncc(N3CCC4(CCN(c5ccncc5)CC4)CC3)n2)C2CC2)c(C)c1 [Example I-006, N-cyclopropyl-4-methoxy-2,6-dimethyl-N-[3-[6-(9-pyridin-4-yl-3,9-diazaspiro[5.5]undecan-3-yl)-pyrazin-2-yl]-propyl]-benzenesulfonic acid amide] | 94% | 97% | – | –
COc1cc(C)c(S(=O)(=O)N(CCN(C)c2nccc(N3CCC4(CCN(c5ccncc5)CC4)CC3)n2)C2CC2)c(C)c1 [Example I-005, N-cyclopropyl-4-methoxy-2,6-dimethyl-N-[2-[methyl-[4-(9-pyridin-4-yl-3,9-diazaspiro[5.5]undecan-3-yl)-pyrimidin-2-yl]-amino]-ethyl]-benzenesulfonic acid amide] | 96% | 111% | – | –
COc1cc(C)c(S(=O)(=O)N2CCC[C@H]2COc2nccc(N3CCC4(CCN(Cc5ccccc5)C4)C3)n2)c(C)c1 (stereo partly drawn) [G_CC-032, 3-benzyl-7-[2-[[(2S)-1-(4-methoxy-2,6-dimethylphenyl)sulfonyl-2-pyrrolidinyl]methoxy]-4-pyrimidinyl]-3,7-diazaspiro[4.4]nonane] | 86% | 105% | – | –
COc1cc(C)c(S(=O)(=O)N(CCOc2nccc(N3CCC4(CCN(c5ccncc5)C4)C3)n2)C2CC2)c(C)c1 (centres unmarked) [Example G-014, N-cyclopropyl-4-methoxy-2,6-dimethyl-N-[2-[[4-[8-(4-pyridyl)-3,8-diazaspiro[4.4]nonan-3-yl]-2-pyrimidinyl]oxy]ethyl]benzenesulfonamide] | 100% | 102% | – | –
COc1cc(C)c(S(=O)(=O)N2CCCCC2COc2nccc(N3CCC4(CCN(Cc5ccc(F)cc5)C4=O)CC3)n2)c(C)c1 (centres unmarked) [G_CC-039, 3-[(4-fluorophenyl)methyl]-8-[2-[[1-(4-methoxy-2,6-dimethylphenyl)sulfonyl-2-piperidinyl]methoxy]-4-pyrimidinyl]-3,8-diazaspiro[4.5]decan-4-one] | 58% | 99% | – | –
COc1cc(C)c(S(=O)(=O)N(CCOc2ccnc(N3CCC(Oc4ccncc4)CC3)n2)C2CC2)c(C)c1 [Example H-005, N-cyclopropyl-4-methoxy-2,6-dimethyl-N-[2-[[2-[4-(4-pyridyloxy)-1-piperidinyl]-4-pyrimidinyl]oxy]ethyl]benzenesulfonamide] | 98% | 97% | – | –
COc1cc(C)c(S(=O)(=O)N2CCCC[C@H]2COc2nccc(N3CCC4(CCN(c5ccncc5)CC4)CC3)n2)c(C)c1 [Example G-026, 3-[2-[[(2S)-1-[(4-methoxy-2,6-dimethyl-phenyl)sulfonyl]-piperidin-2-yl]-methoxy]-pyrimidin-4-yl]-9-pyridin-4-yl-3,9-diazaspiro[5.5]undecane] | 98% | 101% | – | –
COc1cc(C)c(S(=O)(=O)N(CCOc2nccc(N3CCC4(CCC(N5CC(F)(F)C5)CC4)CC3)n2)C2CC2)c(C)c1 [Example G-017, N-cyclopropyl-N-[2-[[4-[9-(3,3-difluoro-1-azetidinyl)-3-azaspiro[5.5]undecan-3-yl]-2-pyrimidinyl]oxy]ethyl]-4-methoxy-2,6-dimethylbenzenesulfonamide] | 22% | 103% | – | –
COc1cc(C)c(S(=O)(=O)N2CCCCC2COc2ccnc(N3CCC4(CCN(c5ccncc5)CC4)CC3)n2)c(C)c1 (centres unmarked) [H_CC-032] | – | – | 77% | 101%
COc1cc(C)c(S(=O)(=O)N(C)CCOc2nccc(N3CCN(c4ccncc4)CC3)n2)c(C)c1 [Example G-002, 4-methoxy-N,2,6-trimethyl-N-[2-[[4-[4-(4-pyridyl)-1-piperazinyl]-2-pyrimidinyl]oxy]ethyl]benzenesulfonamide] | 97% | 109% | – | –
COc1cc(C)c(S(=O)(=O)N2CCCCC2COc2nccc(N3CCN(c4ccncc4)CC3)n2)c(C)c1 (centres unmarked) [G_CC-013, 2-[[1-(4-methoxy-2,6-dimethylphenyl)sulfonyl-2-piperidinyl]methoxy]-4-[4-(4-pyridyl)-1-piperazinyl]pyrimidine] | 100% | 102% | – | –
